Broadly, the AC50 is the concentration at which the activity in the assay is half-maximal. Broadly, the IC50 is the midpoint of a concentration-inhibition curve.

Experimental findings from ChEMBL document CHEMBL1201862, “PubChem BioAssay data set” (2004) are described below.

Active and inactive are the calls of the source.

One experiment has as its system HEK293. The experiment can be described thus: EBV LMP1 TES2 canonical NF-kB signalling blockers – cell-based, HEK293, luciferase, cherry-pick, dose response (AID 588343). It is filed as functional. The following applies: Homo sapiens.
For a further experiment, the system named is INS1. In words: INS-1E survival protection against cytokine death – cell-based, luminescence, retest, dose response (AID 449756).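 Further: cell death triggered by IL-1 beta plus TNF-alpha plus IFN-gamma mixture; protective hits raise ATP signal compared with cytokine alone wells.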 The format is functional. The following applies: Rattus norvegicus.
Experiment [1] deals with 26S proteasome non-ATPase regulatory subunit 14 (Homo sapiens, UniProt O00487). The experiment can be described thus: inhibition of proteasome subunit RPN11 – biochemical, fluorescence polarization, uHTS hits, confirmation (AID 602368). It is filed as functional. (In general: Fluorescence polarisation rises when a labelled molecule tumbles more slowly, as on binding a larger partner.)
26S proteasome non-ATPase regulatory subunit 14, sequence (O00487 whole entry): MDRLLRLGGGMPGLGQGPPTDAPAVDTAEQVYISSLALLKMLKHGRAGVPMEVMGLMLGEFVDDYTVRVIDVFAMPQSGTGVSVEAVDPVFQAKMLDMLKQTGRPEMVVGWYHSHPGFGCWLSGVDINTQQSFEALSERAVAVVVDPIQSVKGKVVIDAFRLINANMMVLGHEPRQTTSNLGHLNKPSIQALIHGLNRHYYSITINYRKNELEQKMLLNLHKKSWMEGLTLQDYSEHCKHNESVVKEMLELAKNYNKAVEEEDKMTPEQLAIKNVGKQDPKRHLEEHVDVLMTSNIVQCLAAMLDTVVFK

Experiment [2] has as its target 72 kDa type IV collagenase (Homo sapiens, UniProt P08253). In words: Dose Response validation of uHTS RPN11 inhibitor hits using a MMP-2 Fluorescence assay. It is filed as functional.
The target in the next experiment is Prothrombin (Bos taurus, UniProt P00735). In words: thrombin protease inhibitors – biochemical, fluorescence polarization, uHTS hits, dose response (AID 602369). It is filed as functional.
Experiment [3] concerns the target T1, Endoribonuclease toxin MazF (Escherichia coli K-12, UniProt P0AE70).
T1 sequence (P0AE70 whole entry): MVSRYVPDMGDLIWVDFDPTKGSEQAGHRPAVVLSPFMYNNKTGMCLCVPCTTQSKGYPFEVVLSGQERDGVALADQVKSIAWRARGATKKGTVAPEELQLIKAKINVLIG
The experiment can be described thus: activation of MazEF endoribonuclease cleavage – biochemical, fluorescence, single-stranded RNA substrate, uHTS hits, dose response (AID 588481). The format is functional.

In experiment [4] the target is T1, Endoribonuclease toxin MazF. In words: substrate-only fluorescence increase artefacts – biochemical, single-stranded RNase substrate, counter-screen for MazEF activator project, dose response (AID 588502). It is filed as functional. A general note: The purpose of a counterscreen is to sort out artefacts and off-target activity.
The target of experiment [5] is T2, Corticotropin-releasing factor receptor 2/Corticotropin-releasing factor-binding protein (Homo sapiens, UniProt P24387+Q13324).
T2 sequence (Q13324 whole entry): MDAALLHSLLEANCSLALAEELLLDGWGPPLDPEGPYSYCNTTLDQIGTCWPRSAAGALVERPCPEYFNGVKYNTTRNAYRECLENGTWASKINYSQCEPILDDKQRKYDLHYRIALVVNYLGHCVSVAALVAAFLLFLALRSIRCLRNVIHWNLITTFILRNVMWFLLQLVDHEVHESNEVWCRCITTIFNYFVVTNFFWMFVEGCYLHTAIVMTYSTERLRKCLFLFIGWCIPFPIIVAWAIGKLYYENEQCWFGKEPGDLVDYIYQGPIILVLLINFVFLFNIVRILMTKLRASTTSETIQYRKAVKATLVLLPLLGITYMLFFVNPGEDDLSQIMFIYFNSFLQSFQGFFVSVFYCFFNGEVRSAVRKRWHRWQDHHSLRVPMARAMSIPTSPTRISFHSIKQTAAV
T2 sequence (P24387 whole entry): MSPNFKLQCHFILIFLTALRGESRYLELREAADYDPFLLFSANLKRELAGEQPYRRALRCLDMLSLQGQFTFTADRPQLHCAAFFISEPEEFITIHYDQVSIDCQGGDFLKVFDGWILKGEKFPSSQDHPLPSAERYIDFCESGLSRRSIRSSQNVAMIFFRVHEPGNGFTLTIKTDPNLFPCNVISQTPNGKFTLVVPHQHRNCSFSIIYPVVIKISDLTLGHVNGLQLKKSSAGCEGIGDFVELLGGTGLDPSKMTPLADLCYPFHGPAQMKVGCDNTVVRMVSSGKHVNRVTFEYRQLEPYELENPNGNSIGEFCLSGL
The experiment can be described thus: activators of CRF receptor 2 with binding protein – uHTS hits, confirmation (AID 602473). The settings on record: read-out: EC50_Mean. It is filed as functional.

The target in a further experiment is Trypsin (Sus scrofa, UniProt P00761). The experiment can be described thus: trypsin protease activity blockade – biochemical, quenched peptide fluorescence, cherry-pick, selectivity assay for Rce1 protease inhibitor project, dose response (AID 488789).
Trypsin, sequence (P00761 whole entry): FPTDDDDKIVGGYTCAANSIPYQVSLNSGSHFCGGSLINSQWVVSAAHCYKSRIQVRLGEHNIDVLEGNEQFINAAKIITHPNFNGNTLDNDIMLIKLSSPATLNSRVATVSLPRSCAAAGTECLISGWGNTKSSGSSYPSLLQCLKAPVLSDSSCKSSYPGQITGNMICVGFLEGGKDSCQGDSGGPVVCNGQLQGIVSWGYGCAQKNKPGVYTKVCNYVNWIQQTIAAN
In experiment [6] the target is T3, CAAX prenyl protease 2 (Saccharomyces cerevisiae S288c, UniProt Q03530).
T3 sequence (Q03530 whole entry): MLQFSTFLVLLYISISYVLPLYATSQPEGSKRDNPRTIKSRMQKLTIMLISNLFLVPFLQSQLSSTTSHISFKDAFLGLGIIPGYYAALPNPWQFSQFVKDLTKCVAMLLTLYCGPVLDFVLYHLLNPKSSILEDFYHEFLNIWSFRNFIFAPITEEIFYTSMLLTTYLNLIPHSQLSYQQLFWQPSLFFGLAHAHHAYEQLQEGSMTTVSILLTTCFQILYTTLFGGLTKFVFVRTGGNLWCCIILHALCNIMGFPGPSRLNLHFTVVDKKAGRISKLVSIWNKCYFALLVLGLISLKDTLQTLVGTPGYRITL
The format is biochemical.

Experiment [7] deals with T4, CAAX prenyl protease 2 (Homo sapiens, UniProt Q9Y256).
T4 sequence (Q9Y256 whole entry): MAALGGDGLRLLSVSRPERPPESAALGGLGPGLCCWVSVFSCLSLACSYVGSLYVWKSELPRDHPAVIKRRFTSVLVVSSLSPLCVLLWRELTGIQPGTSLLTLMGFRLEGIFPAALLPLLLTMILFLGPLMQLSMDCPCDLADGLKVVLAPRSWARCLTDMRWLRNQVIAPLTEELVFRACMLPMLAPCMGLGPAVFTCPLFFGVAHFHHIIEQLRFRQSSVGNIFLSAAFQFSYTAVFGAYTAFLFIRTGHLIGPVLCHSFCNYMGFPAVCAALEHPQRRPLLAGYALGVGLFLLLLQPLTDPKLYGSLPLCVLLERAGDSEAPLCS
The experiment can be described thus: inhibition of Ras-converting CAAX protease Rce1 – biochemical, yeast membranes, quenched-peptide fluorescence, cherry-pick, dose response (AID 588849).

72 kDa type IV collagenase, sequence (P08253 whole entry): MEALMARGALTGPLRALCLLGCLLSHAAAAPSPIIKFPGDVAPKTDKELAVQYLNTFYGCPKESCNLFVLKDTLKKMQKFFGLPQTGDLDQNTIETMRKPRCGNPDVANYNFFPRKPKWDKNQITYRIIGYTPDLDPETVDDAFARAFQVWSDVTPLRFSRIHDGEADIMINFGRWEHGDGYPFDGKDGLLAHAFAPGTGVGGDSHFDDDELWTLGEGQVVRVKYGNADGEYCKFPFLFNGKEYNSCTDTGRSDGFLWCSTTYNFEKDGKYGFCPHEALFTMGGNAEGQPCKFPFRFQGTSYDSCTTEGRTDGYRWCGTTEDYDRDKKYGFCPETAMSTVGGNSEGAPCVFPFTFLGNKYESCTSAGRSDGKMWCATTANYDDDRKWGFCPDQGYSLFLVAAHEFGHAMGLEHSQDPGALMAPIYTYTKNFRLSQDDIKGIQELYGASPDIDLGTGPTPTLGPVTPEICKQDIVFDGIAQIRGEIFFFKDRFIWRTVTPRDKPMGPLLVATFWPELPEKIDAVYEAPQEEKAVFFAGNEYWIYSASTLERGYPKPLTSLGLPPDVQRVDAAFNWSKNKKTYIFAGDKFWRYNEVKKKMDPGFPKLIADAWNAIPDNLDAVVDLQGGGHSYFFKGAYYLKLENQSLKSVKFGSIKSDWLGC

`COc1ccc2nc(-c3ccc(C)cc3)cc(O)c2c1`: the half-maximal activity concentration (AC50) with HEK293 is 2.68 µM (active).

With `CCC(=O)NC(c1cc(Cl)c2cccnc2c1O)C1CC1` (stereo unspecified), the results for the AC50 in the experiment with HEK293 and in the experiment on INS1 were 10.1 µM (active) and 1.89 µM (active), respectively.

In the case of `O=C(CCN1C(=O)/C(=C\c2cccs2)SC1=S)Nc1ccccn1`, the IC50 in [1] was 9.93 µM (active); in experiment [2], > 100 µM (inactive); on Prothrombin it was 15.1 µM (active).

In the case of `Cn1c(=O)c2[nH]c(-c3ccccc3Cl)c(O)c2n(C)c1=O`, the values for the EC50 in experiment [3], in experiment [4] and in experiment [5] were 55.6 µM (inactive), 16 µM (active) and > 53 µM (inactive), respectively.

In the case of `COc1ccc(C2=NN(C(=O)CCC(=O)O)C(c3cccs3)C2)cc1` (stereo unspecified), the values for the AC50 on Trypsin, at CAAX prenyl protease 2 [6] and on CAAX prenyl protease 2 [7] were 4.38 µM (active), 9.03 µM (active) and 12.6 µM (active), respectively.

With `Cc1ccc2c(n1)sc1c(-c3ccccc3)c(C#N)c(N)nc12`, the EC50 in experiment [3] and in [4] was > 99 µM (inactive) in each case.

For the compound `Cc1nn(-c2ccccc2)c2nc(N)c(C(N)=O)cc12`, the AC50 on Trypsin was 37.9 µM (active); on CAAX prenyl protease 2 [7] it was 21.3 µM (active).
